{
  "source": "patent US7105669B1",
  "about": "“Quinazoline derivatives” (AstraZeneca AB, priority 1999, dated 2006)",
  "key": {"MCF7 cells": {"tested_on": "MCF7 cells", "experiment": "In vitro cell cycle analysis assay (FACS, propidium iodide)", "format": "cell-based, human", "conditions": "12.76 μM, 24 hours", "description": "This assay determines the ability of a test compound to arrest cells in specific phases of the cell cycle. Many different mammalian cell lines could be used in this assay and MCF7 cells are included here as an example. MCF-7 cells were seeded at 3×10^5 cells per T25 flask (Costar) in 5 ml DMEM (no phenol red 10% FCS, 1% L-glutamine 1% penicillin/streptomycin). Flasks were then incubated overnight in a humidified 37° C. incubator with 5% CO2. The following day 1 ml of DMEM (no phenol red 10% FCS, 1% L-glutamine 1% penicillin/streptomycin) carrying the appropriate concentration of test compound solubilised in DMSO was added to the flask. A no compound control treatments was also included (0.5% DMSO). The cells were then incubated for a defined time (usually 24 hours) with compound. After this time the media was aspirated from the cells and they were washed with 5 ml of prewarmed (37° C.) sterile PBSA, then detached from the flask by brief incubation with trypsin and followed by resuspension in 10 ml of 1% Bovine Serum Albumin (BSA, Sigma-Aldrich Co.) in sterile PBSA. The samples were then centrifuged at 2200 rpm for 10 min. The supernatant was aspirated and the cell pellet was resuspended in 200 μl of 0.1% (w/v) Tris sodium citrate, 0.0564% (w/v) NaCl, 0.03% (v/v) Nonidet NP40, [pH 7.6]. Propridium Iodide (Sigma Aldrich Co.) was added to 40 μg/ml and RNAase A (Sigma Alrich Co.) to 100 μg/ml. The cells were then incubated at 37° C. for 30 minutes. The samples were centrifuged at 2200 rpm for 10 min, the supernatant removed and the remaining pellet (nuclei) resuspended in 200 μl of sterile PBSA. […] The samples were then transferred to LPS tubes and DNA content per cell analysed by Fluorescence activated cell sorting (FACS) using a FACScan flow cytometer (Becton Dickinson). Typically 25000 events were counted and recorded using CellQuest v1.1 software (Verity Software). Cell cycle distribution of the population was calculated using Modfit software (Verity Software) and expressed as percentage of cells in G0/G1, S and G2/M phases of the cell cycle. […]"}, "MCF-7 cells [1]": {"tested_on": "MCF-7 cells", "experiment": "In vitro cell proliferation assay, Assay 1 (CyQUANT cell density)", "format": "cell-based", "conditions": "Homo sapiens, MCF7, 72 h, MCF-7, 3 days with compound, read-out: concentration giving 50% inhibition of cell proliferation", "description": "(§1) These and other assays can be used to determine the ability of a test compound to inhibit the growth of adherent mammalian cell lines, for example the human tumour cell line MCF7.\nMCF-7 (ATCC HTB-22) or other adherent cells were typically seeded at 1×10^3 cells per well (excluding the peripheral wells) in DMEM (Sigma Aldrich) without phenol red, plus 10% foetal calf serum, 1% L-glutamine and 1% penicillin/streptomycin in 96 well tissue culture treated clear plates (Costar). The following day (day 1), the media was removed from a no treatment control plate and the plate stored at −80° C. The remaining plates were dosed with compound (diluted from 10 mM stock in DMSO using DMEM (without phenol red, 10% FCS, 1% L-glutamine, 1% penicillin/streptomycin). Untreated control wells were included on each plate. After 3 days in the presence/absence of compound (day 4) the media was removed and the plates stored at −80° C. Twenty four hours later the plates were thawed at room temperature and cell density determined using the CyQUANT cell proliferation assay kit (c-7026/c-7027 Molecular Probes Inc.) according to manufacturers directions. Briefly, 200 μl of a cell lysis/dye mixture (10 μl of 20× cell lysis buffer B, 190 μl of sterile water, 0.25 μl of CYQUANT GR dye) was added to each well and the plates incubated at room temperature for 5 minutes in the dark. […]"}, "MCF-7 cells [2]": {"tested_on": "MCF-7 cells", "experiment": "In vitro cell proliferation assay, Assay 2 (BrdU incorporation)", "format": "cell-based", "conditions": "Homo sapiens, MCF7; MCF-7, 48 hours with compound, 2 hour BrdU labelling; read-out: concentration giving 50% inhibition of BrdU incorporation", "description": "as §1\nThis assay determines the ability of a test compound to inhibit the incorporation of the thymidine analogue, 5′-bromo-2′-deoxy-uridine (BrdU) into cellular DNA. MCF-7 or other adherent cells were typically seeded at 0.8×10^4 cells per well in DMEM (Sigma Aldrich) without phenol red, plus 10% foetal calf serum, 1% L-glutamine and 1% penicillin/streptomycin (50 μl/well) in 96 well tissue culture treated 96 well plates (Costar) and allowed to adhere overnight. […] The optical density of the wells was then determined at 690 nm wavelength using a Titertek Multiscan plate reader. […]"}, "aurora2 kinase": {"target": "T1, aurora2 kinase (Homo sapiens, UniProt O14965)", "T1 construct": "made in house; host or cells: Spodoptera frugiperda Sf21 insect cells (baculovirus, pFastBac HTc)", "T1 sequence (O14965 1-403)": "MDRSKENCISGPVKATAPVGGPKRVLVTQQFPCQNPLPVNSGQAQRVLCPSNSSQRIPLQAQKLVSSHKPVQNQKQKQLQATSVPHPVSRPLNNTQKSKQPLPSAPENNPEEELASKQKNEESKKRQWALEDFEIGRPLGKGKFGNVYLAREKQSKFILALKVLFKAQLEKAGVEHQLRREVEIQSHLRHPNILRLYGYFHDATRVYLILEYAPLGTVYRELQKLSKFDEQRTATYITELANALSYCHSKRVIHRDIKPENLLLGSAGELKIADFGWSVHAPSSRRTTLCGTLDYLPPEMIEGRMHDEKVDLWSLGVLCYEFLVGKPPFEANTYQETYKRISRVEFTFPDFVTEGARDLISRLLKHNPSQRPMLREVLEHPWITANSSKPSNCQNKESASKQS", "experiment": "In vitro aurora2 kinase inhibition test", "format": "biochemical"}},
  "data": [
    {"smiles": "COc1cc2ncnc(Nc3ccc(/C=C/C(=O)NC4CCCC(C)C4)cc3)c2cc1OC", "note": "(stereo not drawn) [Compound 18]", "values": [
      {"measurement": "% Cells in G1", "setting": "MCF7 cells", "result": 30.96, "unit": "%"},
      {"measurement": "% Cells in G2/M", "setting": "MCF7 cells", "result": 49.62, "unit": "%"},
      {"measurement": "% Cells in S", "setting": "MCF7 cells", "result": 19.42, "unit": "%"},
      {"measurement": "IC50", "setting": "MCF-7 cells [1]", "result": 6380, "unit": "nM"},
      {"measurement": "IC50", "setting": "MCF-7 cells [2]", "result": 2470, "unit": "nM"},
      {"measurement": "IC50", "setting": "aurora2 kinase", "result": 117, "unit": "nM"}
    ]}
  ]
}
